Source: patent publication US20230390279A1, “COMPOSITION AND METHOD FOR TREATING CANCER” (NOVMETAPHARMA CO., LTD., priority 2022, published 2023)

What was measured:
Type in all cases: cell-based
[1] = test system: A549 lung cancer cell line; assay: MTT cell viability assay, TKI combination; conditions: Homo sapiens, bosutinib 12.5 μM, 24 hours, read-out: growth inhibition
Procedure: (§1) To evaluate anticancer effects of ERRγ compound, alone and in combination with TKIs, various cancer cells including A549, Panc-1, Sk-Hep-1, Huh-7, and SK-Hep-1 cells were cultured in DMEM containing 10% FBS and 1% antibiotics.
(§2) To initiate the assay, cells were seeded in 96-well plates at a density of 1×10^4 cells per well and incubated overnight in a 37° C. […] To serve as a control, an equal volume of DMSO was added. After 24 hours of incubation, the media was replaced with media containing 0.5 mg/ml of MTT and the plates were incubated for 1 hour. Then, the medium was removed and formazan crystals were dissolved in 100 μl of DMSO added to each well. A microplate reader was used to measure the absorbance at 570 nm, and cell viability was normalized to control. Statistical significance was calculated using Student's t-test, with significance levels set at **p<0.01, ***p<0.001, and ****p<0.0001.

[2] = test system: Panc1 pancreatic cancer cells; assay: MTT cell viability assay, TKI combination; conditions: Homo sapiens, PANC-1, ceritinib 2.5 μM, 24 hours, read-out: growth inhibition
Procedure: as §1, §2

[3] = test system: SK-Hep-1 liver cancer cells; assay: MTT cell viability assay, TKI combination; conditions: Homo sapiens, SK-HEP1, lenvatinib 15 μM, 24 hours, read-out: growth inhibition
Procedure: as §1, §2

Huh-7 liver cancer cells = assay: MTT cell viability assay, TKI combination; conditions: Homo sapiens, lenvatinib 1.3 μM, 24 hours, read-out: growth inhibition
Procedure: as §1, §2

[4] = test system: SKOV-3 ovarian cancer cells; assay: MTT cell viability assay, TKI combination; conditions: Homo sapiens, SK-OV-3, ruxolitinib 30 μM, 24 hours, read-out: growth inhibition
[5] = test system: sorafenib-resistant liver cancer cell line Huh7-SR; assay: Cell death by FACS (annexin/PI) and cleaved caspase-3; conditions: Huh7-SR cells; FIGS. 1A to 1C
Procedure: (§3) To evaluate the cancer cell death by FACS, first, a cancer cell line was incubated in FITC-bound annexin and propidium iodide (PI) for 15 minutes, and annexin and PI binding were then measured by flow cytometry to acquire data using a BD Accuri C6 flow cytometer (BD Biosciences) and analyzed with the ACCURI™ C6 analysis program (BD Biosciences)/FlowJo software (FlowJo, LLC.). Cancer cell line death was evaluated using a cleaved caspase-3 antibody (Cell Signaling Technology).

[6] = test system: sorafenib-resistant liver cancer cell line SK-Hep-R; assay: as above; conditions: SK-Hep-R cells; FIGS. 1A to 1C
Procedure: as §3

[7] = test system: sorafenib-resistant liver cancer cell line Huh7-R; assay: Cell proliferation, trypan blue cell count with hemocytometer; conditions: sorafenib alone, FIG. 4A
[8] = test system: sorafenib-resistant liver cancer cell line SK-Hep-R; assay: as above; conditions: sorafenib alone, FIG. 4B

COc1cc(Nc2c(C#N)cnc3cc(OCCCN4CCN(C)CC4)c(OC)cc23)c(Cl)cc1Cl [bosutinib]
inhibition at 12.5 µM [1]: 16.3%

Cc1cc(Nc2ncc(Cl)c(Nc3ccccc3S(=O)(=O)C(C)C)n2)c(OC(C)C)cc1C1CCNCC1 [ceritinib]
inhibition at 2.5 µM [2]: 17%

COc1cc2nccc(Oc3ccc(NC(=O)NC4CC4)c(Cl)c3)c2cc1C(N)=O [lenvatinib]
inhibition at 15 µM [3]: 16.7% | inhibition at 1.3 µM (Huh-7 liver cancer cells): 16.7%

N#CC[C@H](C1CCCC1)n1cc(-c2ncnc3[nH]ccc23)cn1 [ruxolitinib]
inhibition at 30 µM [4]: 8.8%

CNC(=O)c1cc(Oc2ccc(NC(=O)Nc3ccc(Cl)c(C(F)(F)F)c3)cc2)ccn1 [sorafenib]
cell death by sorafenib [5]: did not increase | cell death by sorafenib [6]: did not increase | cell proliferation [7]: not affected | cell proliferation [8]: not affected
